Measured values from PubChem BioAssay (NCI).
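Values below derive from 48-hour exposures of cells grown in 96-well plates, with endpoints linearly interpolated between the two concentrations bracketing the appropriate inhibition level. TGI: total growth inhibition.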

What was measured:
Experiment in all cases: NCI anticancer screen, dose series, 48 h
[1] = test system: UACC-257 melanoma
[2] = test system: HOP-92 NSCLC
[3] = test system: U251 CNS
[4] = test system: CAKI-1 renal
[5] = test system: SF-295 CNS
[6] = test system: K-562 leukemia
[7] = test system: OVCAR-8 ovarian
[8] = test system: SNB-19 CNS
[9] = test system: RPMI-8226 leukemia
[10] = test system: 786-0 renal
[11] = test system: SK-MEL-28 melanoma
[12] = test system: M14 melanoma
[13] = test system: HOP-62 NSCLC
[14] = test system: COLO 205 colon
[15] = test system: OVCAR-4 ovarian
[16] = test system: MALME-3M melanoma
[17] = test system: IGROV1 ovarian
[18] = test system: M19-MEL melanoma
[19] = test system: OVCAR-3 ovarian
[20] = test system: SNB-78 CNS
[21] = test system: HT29 colon
[22] = test system: OVCAR-5 ovarian
[23] = test system: KM12 colon
[24] = test system: NCI-H460 lung
[25] = test system: TK-10 renal
[26] = test system: HCC-2998 colon
[27] = test system: HCT-116 colon
[28] = test system: ACHN renal
[29] = test system: A549 NSCLC
[30] = test system: DLD-1 colon
[31] = test system: DMS 273 small cell lung
[32] = test system: RXF 393 renal
[33] = test system: HL-60(TB) leukemia
[34] = test system: UO-31 renal
[35] = test system: NCI-H23 lung
[36] = test system: SN12C renal
[37] = test system: KM20L2 colon
[38] = test system: SF-268 CNS
[39] = test system: DMS 114 small cell lung
[40] = test system: SK-MEL-2 melanoma
[41] = test system: UACC-62 melanoma
[42] = test system: MOLT-4 leukemia
[43] = test system: SF-539 CNS
[44] = test system: SK-MEL-5 melanoma
[45] = test system: SR leukemia
[46] = test system: LXFL 529 NSCLC
[47] = test system: A498 renal
[48] = test system: HOP-18 NSCLC
[49] = test system: NCI-H226 lung
[50] = test system: SK-OV-3 ovarian
[51] = test system: CCRF-CEM leukemia
[52] = test system: EKVX NSCLC
[53] = test system: SW-620 colon
[54] = test system: LOX IMVI melanoma
[55] = test system: SNB-75 CNS
[56] = test system: XF 498 CNS
[57] = test system: HCT-15 colon
[58] = test system: NCI-H522 lung

Measured: TGI

[N-]=[N+]=NC(c1cn(C2CC(O)C(CO)O2)c(=O)[nH]c1=O)C(I)I (stereo not drawn)
not listed: [55] | [56] | [57] | [58]
> 100 µM: all other assays above

Cn1nc2ccc3nccc(NCCNCCCl)c3c2n1
not listed: [1] | [3] | [4] | [10] | [20] | [35] | [44] | [47] | [48]
> 100 µM: all other assays above
